# Experimental data from patent publication US10485800B2, “Mixed lineage kinase inhibitors for HIV/AIDS therapies” (UNIVERSITY OF ROCHESTER, priority 2012, dated 2019).
# Target: MLK3 (Homo sapiens (Human), UniProt Q16584)
# Assay: Radiometric filter plate MLK3 assay
# Type: biochemical
# Settings: 2 μM cold ATP (Km), 1 μM inactive MKK7b, twenty minute incubation; read-out: MK3 IC50
# Description: After a twenty minute incubation, the reactions were washed through filter plates and read on a scintillation counter. Results are shown in Table 9 below, in which +++ indicates ≤0.1 μM, ++ indicates >0.1 μM and ≤1 μM, and + indicates >1 μM.
# Sequence of MLK3 (Q16584 whole entry): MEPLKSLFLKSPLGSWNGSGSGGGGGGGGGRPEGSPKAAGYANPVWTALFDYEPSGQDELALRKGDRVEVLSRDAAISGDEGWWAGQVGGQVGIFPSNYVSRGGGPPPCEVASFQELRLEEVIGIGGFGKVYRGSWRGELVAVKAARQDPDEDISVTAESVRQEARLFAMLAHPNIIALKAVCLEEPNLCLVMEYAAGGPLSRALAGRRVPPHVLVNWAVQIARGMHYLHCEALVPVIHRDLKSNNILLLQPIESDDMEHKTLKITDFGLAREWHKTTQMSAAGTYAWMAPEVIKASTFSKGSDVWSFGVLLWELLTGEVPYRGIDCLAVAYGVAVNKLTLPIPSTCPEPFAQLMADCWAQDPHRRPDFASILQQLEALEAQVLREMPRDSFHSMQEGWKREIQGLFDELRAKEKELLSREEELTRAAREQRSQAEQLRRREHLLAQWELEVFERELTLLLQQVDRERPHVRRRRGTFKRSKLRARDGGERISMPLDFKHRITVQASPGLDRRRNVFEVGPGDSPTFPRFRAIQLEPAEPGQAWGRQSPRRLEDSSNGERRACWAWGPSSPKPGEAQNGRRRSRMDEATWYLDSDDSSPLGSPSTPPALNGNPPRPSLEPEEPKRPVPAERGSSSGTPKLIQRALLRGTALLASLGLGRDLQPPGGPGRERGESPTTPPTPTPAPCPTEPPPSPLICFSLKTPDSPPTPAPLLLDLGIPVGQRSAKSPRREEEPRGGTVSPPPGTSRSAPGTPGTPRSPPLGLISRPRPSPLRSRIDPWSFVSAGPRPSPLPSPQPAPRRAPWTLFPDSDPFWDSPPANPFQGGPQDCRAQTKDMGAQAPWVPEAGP
row,Structure (SMILES),IC50
1,"CN1CCN(c2cc(-c3cnc4[nH]cc(-c5ccc6[nH]ccc6c5)c4c3)ccn2)CC1 [Example 7, 3-(1H-indol-5-yl)-5-(2-(4-methylpiperazin-1-yl)pyridin-4-yl)-1H-pyrrolo[2,3-b]pyridine]",< 100 nM
2,"COc1cc(-c2cnc3[nH]cc(-c4ccc(N(C)C)nc4)c3c2)cc(OC)c1OC [Example 19, N,N-dimethyl-5-(5-(3,4,5-trimethoxyphenyl)-1H-pyrrolo[2,3-b]pyridin-3-yl)pyridin-2-amine]",< 100 nM
3,"CN1CCN(Cc2cccc(-c3cnc4[nH]cc(-c5ccc(C(N)=O)cc5)c4c3)c2)CC1 [Example 156, 4-{5-[3-(4-methyl-piperazin-1-ylmethyl)-phenyl]-1H-pyrrolo[2,3-b]pyridin-3-yl}-benzamide]",< 100 nM
4,O=C(CCO)N1CCN(Cc2ccc(-c3cnc4[nH]cc(-c5ccc6[nH]ccc6c5)c4c3)cc2)CC1 [Example 201],< 100 nM
5,"Cc1cc(C)cc(-c2cnc3[nH]c(=O)n(-c4ccc5c(ccn5C)c4)c3n2)c1 [Example 43, 6-(3,5-dimethylphenyl)-1-(1-methyl-1H-indol-5-yl)-1H-imidazo[4,5-b]pyrazin-2(3H)-one]",> 1000 nM
6,"COc1cc(OC)c(-c2cnc3[nH]c(=O)n(C4CCCC4)c3n2)c(OC)c1 [Example 94, 1-cyclopentyl-6-(2,4,6-trimethoxyphenyl)-1H-imidazo[4,5-b]pyrazin-2(3H)-one]",> 1000 nM
7,"COc1cc(-c2cnc3[nH]cc(-c4ccc(C(N)=O)cc4)c3c2)cc(OC)c1OC [Example 25, 4-(5-(3,4,5-trimethoxyphenyl)-1H-pyrrolo[2,3-b]pyridin-3-yl)benzamide]",< 100 nM
8,"O=c1[nH]c2ncc(-c3ccc(O)cc3)nc2n1CC1CC1 [Example 81, 1-(cyclopropylmethyl)-6-(4-hydroxyphenyl)-1H-imidazo[4,5-b]pyrazin-2(3H)-one]",> 1000 nM
9,"CC(=O)N1CCN(Cc2ccc(-c3cnc4[nH]cc(-c5ccc6[nH]ccc6c5)c4c3)cc2)CC1C (centres unmarked) [Example 188, 1-(4-(4-(3-(1H-indol-5-yl)-1H-pyrrolo[2,3-b]pyridin-5-yl)benzyl)-2-methylpiperazin-1-yl)ethanone]",< 100 nM
10,"CN1CCN(Cc2ccc(-c3c[nH]c4ncc(-c5ccc6[nH]ccc6c5)cc34)cc2)CC1 [Example 163, 5-(1H-indol-5-yl)-3-[4-(4-methyl-piperazin-1-ylmethyl)-phenyl]-1H-pyrrolo[2,3-b]pyridine]",> 1000 nM
11,"CC(=O)N1CCN(Cc2ccc(-c3cnc4[nH]cc(-c5ccc(C(N)=O)cc5)c4c3)cc2)CC1 [Example 157, 4-{5-[4-(4-acetyl-piperazin-1-ylmethyl)-phenyl]-1H-pyrrolo[2,3-b]pyridin-3-yl}-benzamide]",< 100 nM
12,"COc1cc(-c2cnc3[nH]c(=O)n(-c4ccc5[nH]ccc5c4)c3n2)cc(OC)c1OC [Example 40, 1-(1H-indol-5-yl)-6-(3,4,5-trimethoxyphenyl)-1H-imidazo[4,5-b]pyrazin-2(3H)-one]",< 100 nM
13,"COc1cc(-c2cnc3[nH]c(=O)n(-c4ccc5cc[nH]c5c4)c3n2)cc(OC)c1OC [Example 113, 1-(1H-indol-6-yl)-6-(3,4,5-trimethoxyphenyl)-1H-imidazo[4,5-b]pyrazin-2(3H)-one]",< 100 nM
14,"COc1cc(-c2cnc3[nH]cc(-c4ccc5[nH]ccc5c4)c3c2)ccc1OCCN(C)C [Example 35, 2-(4-(3-(1H-indol-5-yl)-1H-pyrrolo[2,3-b]pyridin-5-yl)-2-methoxyphenoxy)-N,N-dimethylethanamine]",> 1000 nM
15,CN1CCN(Cc2ccc(-c3cnc4[nH]cc(-c5ccc(F)cc5)c4c3)cc2)CC1 [Example 169],> 1000 nM
16,"CN1CCN(Cc2cccc(-c3cnc4[nH]cc(-c5ccc6[nH]ccc6c5)c4c3)c2)CC1=O [Example 143, 4-{3-[3-(1H-indol-5-yl)-1H-pyrrolo[2,3-b]pyridin-5-yl]-benzyl}-1-methyl-piperazin-2-one]",< 100 nM
17,O=C(CC1CC1)N1CCN(Cc2ccc(-c3cnc4[nH]cc(-c5ccc6[nH]ccc6c5)c4c3)cc2)CC1 [Example 203],< 100 nM

row,Structure (SMILES),IC50
1,COC(=O)N1CCN(Cc2ccc(-c3cnc4[nH]cc(-c5ccc6[nH]ccc6c5)c4c3)cc2)CC1 [Example 194],< 100 nM
2,"Cc1cc2cc(-n3c(=O)[nH]c4ncc(-c5cc(Cl)cc(Cl)c5)nc43)ccc2[nH]1 [Example 73, 6-(3,5-dichlorophenyl)-1-(2-methyl-1H-indol-5-yl)-1H-imidazo[4,5-b]pyrazin-2(3H)-one]",> 1000 nM
3,"COc1cc(-c2cnc3[nH]c(=O)n(C4Cc5ccccc5C4)c3n2)cc(OC)c1OC [Example 110, 1-(2,3-dihydro-1H-inden-2-yl)-6-(3,4,5-trimethoxyphenyl)-1H-imidazo[4,5-b]pyrazin-2(3H)-one]",< 100 nM
4,"CN1CCN(Cc2ccc(-c3cnc4[nH]cc(-c5ccc6[nH]ccc6c5)c4c3)cc2)CC1=O [Example 141, 4-{4-[3-(1H-indol-5-yl)-1H-pyrrolo[2,3-b]pyridin-5-yl]-benzyl}-1-methyl-piperazin-2-one]",< 100 nM
5,"COc1cc(-c2cnc3c(c2)C(=Cc2ccccc2)C(=O)N3)cc(OC)c1OC [Example 130, 3-benzylidene-5-(3,4,5-trimethoxy-phenyl)-1,3-dihydro-pyrrolo[2,3-b]pyridin-2-one]",> 1000 nM
6,"COc1ccc(-c2cnc3[nH]c(=O)n(C4CCCC4)c3n2)cc1OC [Example 75, 1-cyclopentyl-6-(3,4-dimethoxyphenyl)-1H-imidazo[4,5-b]pyrazin-2(3H)-one]",> 1000 nM
7,"COc1cc(-c2cnc3c(c2)C(=Cc2cccc(C#N)c2)C(=O)N3)cc(OC)c1OC [Example 134, 3-[2-oxo-5-(3,4,5-trimethoxy-phenyl)-1,2-dihydro-pyrrolo[2,3-b]pyridin-3-ylidenemethyl]-benzonitrile]",> 1000 nM
8,"CC(C)(C)OC(=O)N1CCN(C(=O)c2ccc(-c3cnc4[nH]cc(-c5ccc(C(N)=O)cc5)c4c3)cc2)CC1 [Example 148, 4-{4-[3-(4-carbamoyl-phenyl)-1H-pyrrolo[2,3-b]pyridin-5-yl]-benzoyl}-piperazine-1-carboxylic acid tert-butyl ester]",< 100 nM
9,"CC(C)(C)OC(=O)N1CCN(Cc2ccc(-c3cnc4[nH]cc(-c5ccc6[nH]ccc6c5)c4c3)cc2)CC1 [Example 144, 4-{4-[3-(1H-indol-5-yl)-1H-pyrrolo[2,3-b]pyridin-5-yl]-benzyl}-piperazine-1-carboxylic acid tert-butyl ester]",< 100 nM
10,"COc1cc(-c2cnc3[nH]c(=O)n(-c4ccc5[nH]ccc5c4)c3n2)ccc1O [Example 55, 6-(4-hydroxy-3-methoxyphenyl)-1-(1H-indol-5-yl)-1H-imidazo[4,5-b]pyrazin-2(3H)-one]",< 100 nM
11,"COc1ccc(-c2cnc3[nH]c(=O)n(-c4ccc5[nH]ncc5c4)c3n2)cc1OC [Example 87, 6-(3,4-dimethoxyphenyl)-1-(1H-indazol-5-yl)-1H-imidazo[4,5-b]pyrazin-2(3H)-one]",> 1000 nM
12,"COc1cc(-c2cnc3[nH]c(=O)n(C4CCc5ccccc54)c3n2)cc(OC)c1OC (centres unmarked) [Example 101, 1-(2,3-dihydro-1H-inden-1-yl)-6-(3,4,5-trimethoxyphenyl)-1H-imidazo[4,5-b]pyrazin-2(3H)-one]",> 1000 nM
13,"O=c1[nH]c2ncc(-c3ccncc3)nc2n1-c1ccc2[nH]ncc2c1 [Example 88, 1-(1H-indazol-5-yl)-6-(pyridin-4-yl)-1H-imidazo[4,5-b]pyrazin-2(3H)-one]",> 1000 nM
14,"CC(C)(C)OC(=O)N1CCN(C(=O)c2cccc(-c3cnc4[nH]cc(-c5ccc(C(N)=O)cc5)c4c3)c2)CC1 [Example 151, 4-{3-[3-(4-carbamoyl-phenyl)-1H-pyrrolo[2,3-b]pyridin-5-yl]-benzoyl}-piperazine-1-carboxylic acid tert-butyl ester]",< 100 nM
15,"CN(C)Cc1ccc(-c2cnc3[nH]cc(-c4ccc5[nH]ccc5c4)c3c2)cc1 [Example 33, 1-(4-(3-(1H-indol-5-yl)-1H-pyrrolo[2,3-b]pyridin-5-yl)phenyl)-N,N-dimethylmethanamine]",< 100 nM
16,"COc1cc(-c2cnc3[nH]c(=O)n(-c4ccc5[nH]ccc5c4)c3n2)ccc1OCCN1CCOCC1 [Example 57, 1-(1H-indol-5-yl)-6-(3-methoxy-4-(2-morpholinoethoxy)phenyl)-1H-imidazo[4,5-b]pyrazin-2(3H)-one]",< 100 nM
17,"COc1cc(-c2cnc3[nH]cc(-c4ccc(N)cc4)c3c2)cc(OC)c1OC [Example 15, 4-(5-(3,4,5-trimethoxyphenyl)-1H-pyrrolo[2,3-b]pyridin-3-yl)aniline]",< 100 nM

# Same assay, conditions: read-out: MK3 IC50
row,Structure (SMILES),IC50
1,"FC(F)(F)CN1CCN(Cc2ccc(-c3cnc4[nH]cc(-c5ccc6[nH]ccc6c5)c4c3)cc2)CC1 [Example 207, 3-(1H-indol-5-yl)-5-(4-((4-(2,2,2-trifluoroethyl)piperazin-1-yl)methyl)phenyl)-1H-pyrrolo[2,3-b]pyridine]",100 to 1000 nM
2,CN1CCN(Cc2ccc(-c3cnc4[nH]cc(-c5ccc6scnc6c5)c4c3)cc2)CC1 [Example 175],100 to 1000 nM
3,"COc1cc(-c2cnc3c(c2)/C(=C\c2ccncc2)C(=O)N3)cc(OC)c1OC [Example 129, (E)- and (Z)-3-pyridin-4-ylmethylene-5-(3,4,5-trimethoxy-phenyl)-1,3-dihydro-pyrrolo[2,3-b]pyridin-2-one]",> 1000 nM
4,Cc1c[nH]c2ccc(-c3c[nH]c4ncc(-c5ccc(CN6CCN(C)CC6)cc5)cc34)cc12 [Example 176],100 to 1000 nM
5,[2H]c1cc2cc(-c3c[nH]c4ncc(-c5ccc(CN6CCN(C)CC6)cc5)cc34)ccc2[nH]1 [Example 181],< 100 nM
6,"CN1CCN(C(=O)c2cccc(-c3cnc4[nH]cc(-c5ccc6[nH]ccc6c5)c4c3)c2)CC1 [Example 147, {3-[3-(1H-indol-5-yl)-1H-pyrrolo[2,3-b]pyridin-5-yl]-phenyl}-(4-methyl-piperazin-1-yl)-methanone]",< 100 nM
7,CN1CCN(Cc2ccc(-c3cnc4[nH]cc(-c5ccc6c(c5)CC(=O)N6)c4c3)cc2)CC1 [Example 174],100 to 1000 nM
